Laboratory results as given in patent US20080119530A1, “Method for treatment and prevention of ultraviolet light induced skin pathologies” (priority 2006, published 2008).

What was measured:
Cdc25a = Cdc25a immunoblotting in keratinocytes; format: cell-based, mouse; conditions: vs appropriate controls
Description: Immunoblotting. Flash frozen skin was ground with a mortar and pestle on dry ice, homogenized in lysis buffer containing 10 mM Tris (pH 7.4), 150 mM NaCl, 10% glycerol, 1% Triton X-100, 1 mM EDTA, Complete Protease Inhibitor Cocktail (Roche, Germany), 1 mM Na3V O4, 1.5 μM EGTA, and 10 μM NaF. Protein was quantified using the Coomassie Brilliant Blue G-250 protein assay (Bio-Rad, Hercules, Calif.). The evenness of loading and transfer was determined by staining with Ponceau S and by actin immunoblotting. […]
Cell culture. […] Transfection efficiency was quantified by determining the proportion of the cells that incorporated the fluorescent Cy3-conjugated siRNA or GFP one day post-transfection. […]
In order to understand how Erbb2 regulates S-phase progression following UV irradiation, signaling pathways known to regulate progression into and through S-phase were examined. […] The effect of abrogation of Erbb2 on Cdc25a occurred post-transcriptionally, since no decrease in Cdc25a mRNA was detected in our microarray analysis using the Erbb2 inhibitor (32). […]

[1] = tested on: p38 kinase, ERK1/2 and JNK1/2; test: MAPK activity in keratinocytes; format: cell-based, mouse; conditions: after sham UV
Description: Inactivation of Cdc25a can occur through activation of a member of the p38 MAPK signaling pathway, which is also activated by Erbb2, but this regulation of Cdc25a remains controversial (24). […] Other mechanisms for the inactivation of Cdc25a, including sequestration in the cytoplasm and phosphorylation by p38 kinase following UV exposure or osmotic shock, have been reported (25).

skin = format: in vivo, mouse
Description: Real-Time PCR. Selected changes in gene expression were validated using real-time PCR. Sequences supplied by Affymetrix from the probe set of Il1 b (probe: 1449399_a_at), Mmp9 (probe: 1416298_at) and Thbs1 (probe: 1421811_at) were scanned for unique sequences using a stringent blast search (www.ncbi.nlm.nih.gov/BLAST). Sequences spanning exons were selected preferentially for probes and primers for prepared using Assays-by-Design (Applied Biosystems, Foster City, Calif.). Real-time PCR was performed using TaqMan One-Step RT-PCR Master Mix Reagents (Applied Biosystems, Foster City, Calif.) according to the manufacturer's instructions on an ABI Prism 7000 (Applied Biosystems, Foster City, Calif.). The relative efficiency of amplification of the selected gene versus control (GAPDH or actin) was plotted to ensure the slope of total RNA versus ΔCT was less than 0.05. The 2^−ΔΔC^T was used to determine fold-change differences between samples^25.

## COc1cc(/C=C(\C#N)C(N)=O)cc(CSc2nc3ccccc3s2)c1O [AG825]
Cdc25a
  Cdc25a immunoreactivity: decreased
[1]
  p38 kinase, ERK1/2 and JNK1/2 activity: decrease
skin; 24 h after UV exposure, qPCR
  fold increase in Mmp9 expression: 1.3 fold
skin; 24 h post-UV, real-time PCR
  Thbs1 expression vs vehicle-treated mice: similar
skin; real-time PCR
  Il1 b expression: fold greater increase after UV in vehicle-treated compared to AG825-treated samples: 6 fold
skin; sham-irradiated skin, real-time PCR
  fold higher Thbs1 expression compared to corresponding control: 2 fold
